Reference: article PMC13415951 (Journal of Experimental Botany, 2026)
Residue numbers refer to the chain shown, from its start.

Experiments:
[1] = system: wheat cultivar Apogee seedlings; set-up: species or system Triticum aestivum; settings: in vivo
BdUGT5g03300 [2] = target: T1, BdUGT5g03300 (Brachypodium distachyon, UniProt I1IW79); assay: biochemical
T1 sequence (I1IW79 1-469): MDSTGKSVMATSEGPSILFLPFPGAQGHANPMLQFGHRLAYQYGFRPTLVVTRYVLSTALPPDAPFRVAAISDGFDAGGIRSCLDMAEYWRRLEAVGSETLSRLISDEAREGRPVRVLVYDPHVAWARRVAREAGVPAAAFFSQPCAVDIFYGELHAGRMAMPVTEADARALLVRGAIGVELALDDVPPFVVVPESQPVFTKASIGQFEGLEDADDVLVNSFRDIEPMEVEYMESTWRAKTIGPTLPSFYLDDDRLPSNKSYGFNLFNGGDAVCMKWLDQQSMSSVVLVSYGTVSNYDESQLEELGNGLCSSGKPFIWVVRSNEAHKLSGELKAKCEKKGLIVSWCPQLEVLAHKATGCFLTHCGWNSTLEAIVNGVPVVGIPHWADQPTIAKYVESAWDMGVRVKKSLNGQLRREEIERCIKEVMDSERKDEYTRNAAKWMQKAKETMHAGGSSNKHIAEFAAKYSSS

OsUGT79 = target: T2, OsUGT79 (Oryza sativa subsp. japonica, UniProt Q7XT97); assay: biochemical; type: biochemical
T2 construct: made in house; host or cells: E. coli
T2 sequence (Q7XT97 1-466): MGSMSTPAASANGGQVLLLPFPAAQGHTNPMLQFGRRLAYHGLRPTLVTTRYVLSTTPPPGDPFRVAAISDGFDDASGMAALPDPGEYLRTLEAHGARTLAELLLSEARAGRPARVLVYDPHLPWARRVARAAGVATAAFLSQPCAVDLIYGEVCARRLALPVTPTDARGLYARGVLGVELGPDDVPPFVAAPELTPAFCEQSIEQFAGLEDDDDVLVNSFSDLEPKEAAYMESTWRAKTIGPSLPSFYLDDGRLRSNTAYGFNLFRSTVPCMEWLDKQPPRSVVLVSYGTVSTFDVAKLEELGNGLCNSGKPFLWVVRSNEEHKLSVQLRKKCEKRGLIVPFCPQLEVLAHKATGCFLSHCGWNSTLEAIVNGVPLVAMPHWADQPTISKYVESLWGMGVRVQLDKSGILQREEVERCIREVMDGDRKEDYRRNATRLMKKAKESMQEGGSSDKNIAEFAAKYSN

[3] = system: B. distachyon line OE-10R14; set-up: species or system Brachypodium distachyon; settings: in vivo
OsUGT79 Q202A = target: T3, OsUGT79 Q202A (Oryza sativa subsp. japonica, UniProt Q7XT97, Q202A); type: biochemical
T3 sequence (Q7XT97 1-466 Q202A): T2 sequence (Q7XT97 1-466) with Q202A

Heliothis zea larvae = system: Heliothis zea larvae; set-up: method as in Dowd et al., 1989; settings: ref Dowd et al., 1989; cited from earlier work
[4] = system: marine and terrestrial (human pathogenic) fungi; set-up: method as in Strongman et al., 1987; settings: ref Strongman et al., 1987; cited from earlier work
HvUGT13248 [5] = target: T4, HvUGT13248 (Hordeum vulgare subsp. vulgare, UniProt M0Y4P1); assay: biochemical; type: biochemical; set-up: made in house; host or cells: E. coli
T4 sequence (M0Y4P1 1-475): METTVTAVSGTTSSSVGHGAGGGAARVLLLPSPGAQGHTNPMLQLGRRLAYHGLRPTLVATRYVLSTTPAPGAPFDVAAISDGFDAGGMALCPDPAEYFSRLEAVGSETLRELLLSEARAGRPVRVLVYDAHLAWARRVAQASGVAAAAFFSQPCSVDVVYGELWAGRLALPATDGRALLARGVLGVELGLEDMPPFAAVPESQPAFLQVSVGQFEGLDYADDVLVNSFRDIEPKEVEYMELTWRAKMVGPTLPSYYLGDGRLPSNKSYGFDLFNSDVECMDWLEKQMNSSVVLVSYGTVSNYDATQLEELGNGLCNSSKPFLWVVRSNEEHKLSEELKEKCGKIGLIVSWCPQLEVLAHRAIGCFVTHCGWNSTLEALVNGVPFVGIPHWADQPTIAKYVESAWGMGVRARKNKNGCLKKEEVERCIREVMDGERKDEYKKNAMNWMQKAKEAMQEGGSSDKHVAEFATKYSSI

BdUGT5g03300 [6] = target: T1, BdUGT5g03300; type: biochemical
HvUGT13248 [7] = target: T4, HvUGT13248
HvUGT13248 [8] = target: T4, HvUGT13248; assay: biochemical; settings: read-out: Glucosylation rate of DON, percentage of the control
B. distachyon Bd21-3 = system: B. distachyon Bd21-3; set-up: species or system Brachypodium distachyon; settings: in vivo
[9] = read-out: Glucosylation rate of DON, percentage of the control

What does the source list for `CC1(C)CCC[C@]2(C)[C@@H]3[C@H]1[C@@H](O)[C@@]2(C)C[C@H]3O` [CUL, culmorin]?
Effect of CUL applied together with DON on root length [1]: significantly increased the degree of reduction of root length; Effect on primary and total root length [1]: did not cause a significant change; Specific activity (glucoside formation) (BdUGT5g03300 [2]): ≈ 1×10^−3 nmol min^−1 mg^−1; Specific activity with CUL, fold below the value obtained with DON (BdUGT5g03300 [2]): ~1000 fold; Glucosylation rate of DON, percentage of the control (BdUGT5g03300 [2]; 25 µM): 0.84±0.03%; remaining activity at 25 µM (BdUGT5g03300 [2]; [9]): < 1%; remaining activity at 125 µM (BdUGT5g03300 [2]; [9]): 0.19 ± 0.01%; K iu of CUL (uncompetitive inhibition, DON as variable substrate) (OsUGT79): 208 µM; K iu of CUL (uncompetitive inhibition, UDP-glucose as variable substrate) (OsUGT79): 124 µM; Ki (OsUGT79): 146 µM; Effect of addition of CUL to 50 mg l^−1 DON on root length [3]: severe breakdown of resistance to DON; Specific activity (glucoside formation) (OsUGT79 Q202A): 2.23 ± 0.08 nmol/min/mg; Effect on growth of Heliothis zea larvae (Heliothis zea larvae): no negative effects; Effect on mortality of Heliothis zea larvae in combination with DON (Heliothis zea larvae): significantly increases mortality; Anti-fungal activity [4]: Weak anti-fungal activity; Increase of apparent KM of DON (HvUGT13248 [5]): ~10 fold; K iu of CUL (uncompetitive inhibition, UDP-glucose as variable substrate) (HvUGT13248 [5]): 91 µM; Ki (HvUGT13248 [5]): 56 µM; Increase of apparent KM with DON (BdUGT5g03300 [6]): ~50 fold; K ic of CUL (competitive inhibition, DON as variable substrate) (BdUGT5g03300 [6]): low µM range; K iu of CUL (uncompetitive inhibition, UDP-glucose as variable substrate) (BdUGT5g03300 [6]): 1.4 µM; Ki (BdUGT5g03300 [6]; read-out: K ic of CUL (competitive inhibition, DON as variable substrate)): < 1 µM; Kd (BdUGT5g03300 [6]; read-out: KD of CUL at the acceptor binding site (implied by kinetics)): ~1 µM; Specific activity (glucoside formation) (HvUGT13248 [7]): 6.94 ± 0.52 nmol/min/mg; remaining activity at 25 µM (HvUGT13248 [8]): 59 ± 6%; remaining activity at 125 µM (HvUGT13248 [8]): 13%; Effect of CUL alone on root length (B. distachyon Bd21-3): did not elicit any significant effect; Effect of CUL with 2 mg l^−1 DON on root length (B. distachyon Bd21-3): clear dose-dependent synergistic effect
